Assay results as given in patent US9617267B2, “Compounds and methods for kinase modulation, and indications therefor” (Plexxikon Inc., priority 2009, dated 2017).
Like-named read-outs stand apart in the source and are kept apart here.

Columns and labels:
[1] = Relative solubility by turbidity threshold concentration in aqueous buffers (pH 1.5, 4.5, 6.8, 7.4); type: physicochemical; conditions: for turbidity threshold (L, M, H) 1.4: pH 1.4 [sic] (method: SGF pH 1.5); for turbidity threshold (L, M, H) 4.5: pH 4.5 (SIF); for turbidity threshold (L, M, H) 6.8: pH 6.8 (SIF); for turbidity threshold (L, M, H) 7.4: pH 7.4 (HEPES)
In short: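 Solubility class (high >250 μM, moderate 31.3–250 μM, low <31.3 μM) comes from the concentration where absorbance reaches a 0.01 threshold, averaged across 490/535/650 nm. Samples were compound dilutions from DMSO stock, 1 μL into 99 μL buffer at pH 1.5, 4.5, 6.8 or 7.4.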

[2] = molecular target: CYP3A4(BFC) (Homo sapiens (Human), UniProt P08684); assay: CYP enzyme inhibition, fluorescent substrate BFC; conditions: read-out: Cyp IC50 3A4(BFC); CYP3A4, substrate BFC
Sequence of CYP3A4(BFC) (P08684 whole entry): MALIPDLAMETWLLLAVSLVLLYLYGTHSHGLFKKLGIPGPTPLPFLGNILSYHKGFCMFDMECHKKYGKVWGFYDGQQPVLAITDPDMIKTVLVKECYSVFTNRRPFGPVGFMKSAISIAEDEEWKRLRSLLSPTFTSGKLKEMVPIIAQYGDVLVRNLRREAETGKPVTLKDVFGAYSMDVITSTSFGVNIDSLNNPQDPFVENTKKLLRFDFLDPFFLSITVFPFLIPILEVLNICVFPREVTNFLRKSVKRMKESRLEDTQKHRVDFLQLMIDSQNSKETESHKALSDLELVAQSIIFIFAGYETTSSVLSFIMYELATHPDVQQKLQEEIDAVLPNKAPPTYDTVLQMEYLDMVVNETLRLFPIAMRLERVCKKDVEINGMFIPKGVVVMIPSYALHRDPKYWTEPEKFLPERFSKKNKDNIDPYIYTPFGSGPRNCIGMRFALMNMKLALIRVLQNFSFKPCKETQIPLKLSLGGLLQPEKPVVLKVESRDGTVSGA
In short: (§1)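 First, 100 mM DMSO stocks are diluted into acetonitrile, then twofold through co-factor mix for 10 points. Next, mixtures are preincubated 10 min at 37 °C.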

[3] = molecular target: CYP3A4(BQ) (Homo sapiens (Human), UniProt P08684); assay: CYP enzyme inhibition, fluorescent substrate BQ; conditions: read-out: Cyp IC50 3A4(BQ); CYP3A4, substrate BQ
Sequence of CYP3A4(BQ) (P08684 whole entry): as above
Protocol: CYP (Cytochrome P450) enzymes are the major drug metabolizing enzymes present in the liver. The inhibition of CYP enzyme activity (IC50) for each of CYP1A2, CYP2C19, CYP2C9, CYP2D6, CYP3A4(BFC) and CYP3A4(BQ) is determined for compounds, where inhibition of metabolism of a known substrate leads to a decrease in the fluorescence of the metabolized product. The fluorescence of the product is monitored as a function of compound concentration.
Compounds are dissolved in dimethyl sulfoxide to a concentration of 100 mM. These are diluted 1 μL into 82 μL of acetonitrile. […] These are then serially diluted 1:1 (160 μL to 160 μL co-factor mix) for a total of 10 points. A 10 μL aliquot of this final mixture is dispensed into 384 well assay plates and incubated for 10 minutes at 37° C. […] Assay plates are incubated at 37° C. […] The signal versus compound concentration is used to determine the IC50. The enzymes and substrates for this assay are obtained from BD Biosciences.

[4] = molecular target: CYP2C9 (Homo sapiens (Human), UniProt P11712); assay: CYP enzyme inhibition, fluorescent substrate (MFC); conditions: read-out: Cyp IC50 2C9; CYP2C9, substrate MFC
Sequence of CYP2C9 (P11712 whole entry): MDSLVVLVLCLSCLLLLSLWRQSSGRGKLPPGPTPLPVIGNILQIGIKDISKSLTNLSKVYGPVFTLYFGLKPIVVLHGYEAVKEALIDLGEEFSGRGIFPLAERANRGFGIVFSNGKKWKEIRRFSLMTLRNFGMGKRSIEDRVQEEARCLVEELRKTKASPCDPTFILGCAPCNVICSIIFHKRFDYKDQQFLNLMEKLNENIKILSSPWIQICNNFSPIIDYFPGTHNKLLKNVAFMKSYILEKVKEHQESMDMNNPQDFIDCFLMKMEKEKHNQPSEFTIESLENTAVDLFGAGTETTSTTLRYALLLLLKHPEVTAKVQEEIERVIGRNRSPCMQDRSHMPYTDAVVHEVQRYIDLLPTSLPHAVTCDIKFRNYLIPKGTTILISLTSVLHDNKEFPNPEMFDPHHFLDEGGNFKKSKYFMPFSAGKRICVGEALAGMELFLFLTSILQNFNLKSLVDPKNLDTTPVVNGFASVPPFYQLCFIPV
In short: as §1

[5] = molecular target: CYP2D6 (Homo sapiens (Human), UniProt P10635); assay: CYP enzyme inhibition, fluorescent substrate (AMMC); type: in vitro ADME; conditions: read-out: Cyp IC50 2D6
Sequence of CYP2D6 (P10635 whole entry): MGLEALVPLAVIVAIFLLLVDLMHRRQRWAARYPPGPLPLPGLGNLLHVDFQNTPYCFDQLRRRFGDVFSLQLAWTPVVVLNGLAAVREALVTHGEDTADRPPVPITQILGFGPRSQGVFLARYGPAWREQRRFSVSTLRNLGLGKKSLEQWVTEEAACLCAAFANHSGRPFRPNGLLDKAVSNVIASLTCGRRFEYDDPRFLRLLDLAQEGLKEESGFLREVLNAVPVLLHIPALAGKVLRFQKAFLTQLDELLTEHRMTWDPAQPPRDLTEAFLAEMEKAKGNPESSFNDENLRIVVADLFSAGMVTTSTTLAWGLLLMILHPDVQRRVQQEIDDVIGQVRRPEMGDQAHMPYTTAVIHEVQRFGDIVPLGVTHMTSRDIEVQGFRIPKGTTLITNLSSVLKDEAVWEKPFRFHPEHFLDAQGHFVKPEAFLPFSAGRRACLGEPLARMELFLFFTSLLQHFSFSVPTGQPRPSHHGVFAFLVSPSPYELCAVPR
In short: (§2)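 IC50 derived from loss of fluorescent metabolite across a 10-point 1:1 dilution series. CYP2D6: 1.5 pmol enzyme, 1.5 μM AMMC, 30 min at 37 °C, 409/530 nm; CYP1A2: 0.5 pmol, 5 μM CEC, 15 min, 409/460 nm. Compounds pre-incubated 10 min in NADPH-regenerating mix.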

[6] = molecular target: CYP1A2 (Homo sapiens (Human), UniProt P05177); assay: CYP enzyme inhibition, fluorescent substrate (CEC)
Sequence of CYP1A2 (P05177 whole entry): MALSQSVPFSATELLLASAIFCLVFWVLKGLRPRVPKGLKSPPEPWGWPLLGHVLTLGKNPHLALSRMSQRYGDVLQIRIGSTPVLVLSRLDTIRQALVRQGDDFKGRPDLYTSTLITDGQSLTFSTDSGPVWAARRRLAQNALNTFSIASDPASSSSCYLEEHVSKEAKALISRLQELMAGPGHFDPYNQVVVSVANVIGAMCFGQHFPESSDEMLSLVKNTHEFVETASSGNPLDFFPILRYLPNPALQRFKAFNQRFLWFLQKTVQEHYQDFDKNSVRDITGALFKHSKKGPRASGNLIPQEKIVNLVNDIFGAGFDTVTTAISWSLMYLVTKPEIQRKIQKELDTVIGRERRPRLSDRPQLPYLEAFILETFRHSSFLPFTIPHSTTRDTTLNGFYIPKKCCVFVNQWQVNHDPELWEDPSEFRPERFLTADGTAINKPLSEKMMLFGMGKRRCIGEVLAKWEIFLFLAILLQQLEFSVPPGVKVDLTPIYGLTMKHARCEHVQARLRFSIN
In short: as §2

[7] = molecular target: CYP2C19 (Homo sapiens (Human), UniProt P33261); assay: CYP enzyme inhibition, fluorescent substrate (CEC); conditions: read-out: Cyp IC50 2C19; CYP2C19, substrate CEC
Sequence of CYP2C19 (P33261 whole entry): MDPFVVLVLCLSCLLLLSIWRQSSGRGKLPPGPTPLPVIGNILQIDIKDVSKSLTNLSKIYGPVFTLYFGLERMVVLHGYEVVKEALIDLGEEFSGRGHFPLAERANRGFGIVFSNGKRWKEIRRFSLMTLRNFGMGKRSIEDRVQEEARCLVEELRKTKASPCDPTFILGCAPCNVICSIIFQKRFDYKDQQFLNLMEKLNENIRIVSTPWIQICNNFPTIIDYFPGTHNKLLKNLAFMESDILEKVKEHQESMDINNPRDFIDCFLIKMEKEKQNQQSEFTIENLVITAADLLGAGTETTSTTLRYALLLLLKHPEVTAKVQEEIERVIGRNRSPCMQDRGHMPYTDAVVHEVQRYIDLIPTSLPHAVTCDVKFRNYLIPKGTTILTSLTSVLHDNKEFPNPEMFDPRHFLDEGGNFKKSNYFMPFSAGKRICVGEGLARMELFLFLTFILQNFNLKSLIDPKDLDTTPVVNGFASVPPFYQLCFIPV
In short: as §1

[8] = read-out: Cyp IC50 1A2, CYP1A2, substrate CEC

Compound | IC50 [2] [µM] | IC50 [3] [µM] | IC50 [4] [µM] | IC50 [5] [µM] | IC50 ([6]; human, 15 min) [µM] | IC50 [7] [µM] | IC50 [6] [µM] | turbidity threshold (L, M, H) 1.4 [1] | turbidity threshold (L, M, H) 4.5 [1] | turbidity threshold (L, M, H) 6.8 [1] | turbidity threshold (L, M, H) 7.4 [1] | IC50 [6, 8] [µM]
CCCS(=O)(=O)Nc1ccc(F)c(C(=O)c2c[nH]c3ncnc(NCC4CC4)c23)c1F [P-1079, Propane-1-sulfonic acid {3-[4-(cyclopropylmethyl-amino)-7H-pyrrolo[2,3-d]pyrimidine-5-carbonyl]-2,4-difluoro-phenyl}-amide] | > 10 | > 10 | > 10 | > 10 | > 10 | > 10 |  | M (moderate solubility if the threshold concentration is 31.3 μM to 250 μM) | L (low solubility if the threshold concentration is <31.3 μM) | L (low solubility if the threshold concentration is <31.3 μM) | L (low solubility if the threshold concentration is <31.3 μM) | 
CC(C)Nc1ncnc2[nH]cc(C(=O)c3c(F)ccc(NS(=O)(=O)c4ccccc4F)c3F)c12 [P-1073, N-[2,4-Difluoro-3-(4-isopropylamino-7H-pyrrolo[2,3-d]pyrimidine-5-carbonyl)-phenyl]-2-fluoro-benzenesulfonamide] | > 10 | > 10 | > 10 | > 10 |  | > 10 |  | M (moderate solubility if the threshold concentration is 31.3 μM to 250 μM) | L (low solubility if the threshold concentration is <31.3 μM) | L (low solubility if the threshold concentration is <31.3 μM) | L (low solubility if the threshold concentration is <31.3 μM) | > 10
CCCS(=O)(=O)Nc1ccc(F)c(C(=O)c2c[nH]c3ncnc(Nc4cn(C)nc4C)c23)c1F [P-1100, Propane-1-sulfonic acid {3-[4-(1,3-dimethyl-1H-pyrazol-4-ylamino)-7H-pyrrolo[2,3-d]pyrimidine-5-carbonyl]-2,4-difluoro-phenyl}-amide] | > 10 | > 10 | > 10 | > 10 |  | > 10 |  | M (moderate solubility if the threshold concentration is 31.3 μM to 250 μM) | M (moderate solubility if the threshold concentration is 31.3 μM to 250 μM) | L (low solubility if the threshold concentration is <31.3 μM) | L (low solubility if the threshold concentration is <31.3 μM) | > 10

Further lines, with some results ahead:

IC50 [2] [µM] | IC50 [3] [µM] | IC50 [4] [µM] | IC50 [5] [µM] | IC50 ([6]; human, 15 min) [µM] | IC50 [7] [µM] | IC50 [6] [µM] | Compound | turbidity threshold (L, M, H) 1.4 [1] | turbidity threshold (L, M, H) 4.5 [1] | turbidity threshold (L, M, H) 6.8 [1] | turbidity threshold (L, M, H) 7.4 [1] | IC50 [6, 8] [µM]
> 10 | > 10 | > 10 | > 10 | > 10 | > 10 |  | Cc1nn(C)cc1Nc1ncnc2[nH]cc(C(=O)c3c(F)ccc(NS(=O)(=O)c4ccccc4F)c3F)c12 [P-1154, N-{3-[4-(1,3-Dimethyl-1H-pyrazol-4-ylamino)-7H-pyrrolo[2,3-d]pyrimidine-5-carbonyl]-2,4-difluoro-phenyl}-2-fluoro-benzenesulfonamide] | L (low solubility if the threshold concentration is <31.3 μM) | L (low solubility if the threshold concentration is <31.3 μM) | L (low solubility if the threshold concentration is <31.3 μM) | L (low solubility if the threshold concentration is <31.3 μM) | 
> 10 | > 10 | > 10 | > 10 |  | > 10 | 5 to 10 | O=C(c1c(F)ccc(NS(=O)(=O)c2cc(F)ccc2F)c1F)c1c[nH]c2ncnc(C3CC3)c12 [P-1107, N-[3-(4-Cyclopropyl-7H-pyrrolo[2,3-d]pyrimidine-5-carbonyl)-2,4-difluoro-phenyl]-2,5-difluoro-benzenesulfonamide] | M (moderate solubility if the threshold concentration is 31.3 μM to 250 μM) | L (low solubility if the threshold concentration is <31.3 μM) | M (moderate solubility if the threshold concentration is 31.3 μM to 250 μM) | M (moderate solubility if the threshold concentration is 31.3 μM to 250 μM) | 
